From US10040791B2, “Isoxazole derivative as mutant isocitrate dehydrogenase 1 inhibitor” (Daiichi Sankyo Company, Limited, priority 2014, dated 2018)

Legend:
[1] = system: HT1080 xenografted mice (IDH1R132C); experiment: 2-HG production inhibitory activity using HT1080 xenografted mice; assay type: in vivo, mouse; details: Mus musculus, HT-1080, po, 6 h, 2-HG production, HT1080 xenografted mice; read-out: Test Example 5 Ratio (%)
Summary of the method: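 Mice bearing HT1080 tumors received 75 mg/kg compound by oral gavage twice a day, three doses in total, at 10 mL/kg; vehicle-dosed mice were negative controls. Tumors were collected 6 h after the final dose, frozen, homogenized in methanol and centrifuged, and 2-HG was measured in the extracts.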

IDH1R132C = IDH1R132C (Homo sapiens (Human), UniProt O75874, R132C); experiment: Inhibitory activity against IDH1R132C enzyme (NADPH detection, WST-8); assay type: biochemical; details: 10 nM, residual NADPH detected with WST-8, read-out: Test Example 1 IDH1 R132C IC50
[2] = system: HT-1080 cells expressing IDH1R132C; experiment: 2-HG production inhibitory activity using HT1080 cell; assay type: cell-based, human; details: Homo sapiens, HT-1080; 2-HG production, HT1080 cells; read-out: Test Example 3 IC50
Description: Then, 100 μL of growth medium B was added to each well, further 25 μL of a solution of each compound diluted to a predetermined concentration with growth medium B was added to each well, and the cells were incubated at 37° C. for 2 days under 5% CO2. […] Then, 150 μL of ultrapure water was further added to each well, and the mixture was stirred by pipetting and stored at −20° C.
The preserved solutions were thawed at room temperature.

Sequence of IDH1R132C (O75874 whole entry R132C): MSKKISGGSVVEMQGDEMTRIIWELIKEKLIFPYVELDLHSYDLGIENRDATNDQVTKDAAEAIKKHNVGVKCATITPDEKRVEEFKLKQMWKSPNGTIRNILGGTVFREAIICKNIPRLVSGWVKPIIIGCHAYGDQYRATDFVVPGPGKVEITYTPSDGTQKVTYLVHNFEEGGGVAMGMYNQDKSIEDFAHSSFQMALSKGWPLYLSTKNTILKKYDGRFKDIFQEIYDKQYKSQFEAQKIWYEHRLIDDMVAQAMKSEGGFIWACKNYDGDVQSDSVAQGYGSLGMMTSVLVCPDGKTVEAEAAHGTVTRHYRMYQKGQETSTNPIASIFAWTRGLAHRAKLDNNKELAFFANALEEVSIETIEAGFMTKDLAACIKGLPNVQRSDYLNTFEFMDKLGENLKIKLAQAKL

| Structure (SMILES) | response vs control in vivo at 75 mg/kg [1] | IC50 (IDH1R132C) | IC50 [2] |
| --- | --- | --- | --- |
| Cc1cc(Cl)c(-c2noc(C(C)(C)C)c2C(=O)n2ccc3c(/C=C/C(=O)O)cccc32)c(Cl)c1 [Example 38, (2E)-3-(1-{[5-(tert-Butyl)-3-(2,6-dichloro-4-methylphenyl)-1,2-oxazol-4-yl]carbonyl}-1H-indol-4-yl)prop-2-enoic acid] | 61% | 234 nM | 200 nM |
| Cc1cn(C(=O)c2c(-c3c(Cl)cc(F)cc3Cl)noc2C(C)(C)F)c2cccc(/C=C/C(=O)O)c12 [Example 49, (2E)-3-(1-{[3-(2,6-Dichloro-4-fluorophenyl)-5-(2-fluoropropan-2-yl)-1,2-oxazol-4-yl]carbonyl}-3-methyl-1H-indol-4-yl)prop-2-enoic acid] | 44% | 79 nM | 119 nM |
| C=CC(=O)N1CCN(c2onc(-c3c(Cl)cc(Cl)cc3Cl)c2C(=O)n2ccc3c(/C=C/C(=O)O)cccc32)C(C)C1 (stereo in doubt) [Example 146, (2E)-3-[1-({5-[(2R)-4-Acryloyl-2-methylpiperazin-1-yl]-3-(2,4,6-trichlorophenyl)-1,2-oxazol-4-yl}carbonyl)-1H-indol-4-yl]prop-2-enoic acid] | 38% | 144 nM | 104 nM |
| C=CC(=O)N1CC2(CC2)N(c2onc(-c3c(Cl)cccc3Cl)c2C(=O)n2ccc3c(/C=C/C(=O)O)cccc32)C[C@H]1CC [Example 163, (2E)-3-[1-({5-[(6R)7-Acryloyl-6-ethyl-4,7-diazaspiro[2.5]oct-4-yl]-3-(2,6-dichlorophenyl)-1,2-oxazol-4-yl}carbonyl)-1H-indol-4-yl]prop-2-enoic acid] | 33% | 98 nM | 45 nM |
| COC1(c2onc(-c3c(Cl)cc(Cl)cc3Cl)c2C(=O)n2cc(C)c3c(/C=C/C(=O)O)cccc32)CC1 [Example 57, (2E)-3-(1-{[5-(1-Methoxycyclopropyl)-3-(2,4,6-trichlorophenyl)-1,2-oxazol-4-yl]carbonyl}-3-methyl-1H-indol-4-yl)prop-2-enoic acid] | 12% | 98 nM | 26 nM |
| C=CC(=O)N1CCN(c2onc(-c3c(Cl)cccc3Cl)c2C(=O)n2ccc3c(/C=C/C(=O)O)cccc32)[C@@H](C)C1 [Example 145, (2E)-3-[1-({5-[(2S)-4-Acryloyl-2-methylpiperazin-1-yl]-3-(2,6-dichlorophenyl)-1,2-oxazol-4-yl}carbonyl)-1H-indol-4-yl]prop-2-enoic acid] | 56% | 214 nM | 820 nM |
| COC1(c2onc(-c3c(Cl)cc(Cl)cc3Cl)c2C(=O)n2ccc3c(/C=C/C(=O)O)cccc32)CC1 [Example 44, (2E)-3-(1-{[5-(1-Methoxycyclopropyl)-3-(2,4,6-trichlorophenyl)-1,2-oxazol-4-yl]carbonyl}-1H-indol-4-yl)prop-2-enoic acid] | 72% | 189 nM | 194 nM |
| Cc1cn(C(=O)c2c(-c3c(Cl)cc(Br)cc3Cl)noc2C(C)(C)F)c2cccc(/C=C/C(=O)O)c12 [Example 68, (2E)-3-(1-{[3-(4-Bromo-2,6-dichlorophenyl)-5-(2-fluoropropan-2-yl)-1,2-oxazol-4-yl]carbonyl}-3-methyl-1H-indol-4-yl)prop-2-enoic acid] | 47% | 125 nM | 32 nM |
| COCC(C)(C)c1onc(-c2c(Cl)cc(Cl)cc2Cl)c1C(=O)n1ccc2c(/C=C/C(=O)O)cccc21 [Example 42, (2E)-3-(1-{[5-(1-Methoxy-2-methylpropan-2-yl)-3-(2,4,6-trichlorophenyl)-1,2-oxazol-4-yl]carbonyl}-1H-indol-4-yl)prop-2-enoic acid] | 84% | 217 nM | 178 nM |
